From patent US4241052A, “Novel nitrosourea compounds and process for preparing the same” (Tanabe Seiyaku Co., Ltd., priority 1978, dated 1980)

Tests used:
leukemic cells = details: Japanese Patent Publication No. 141815/1976; cited from earlier work
[1] = tested on: tumor cells of lymphoid leukemia L-1210; details: tumor cells implanted intraperitoneally; U.S. Pat. No. 4086451 and Japanese publications; cited from earlier work
Leukemia L-1210 = assay: Effect on life span of mice implanted with leukemic cells of L-1210 (Method B); format: in vivo, mice (BDF1, male); details: 5 days
Protocol: (B) Effect on the life span of mice implanted with leukemic cells of L-1210
10^5 leukemic cells of L-1210 were inoculated intraperitoneally into a group of four male mice (BDF1 mice, body weight: 19-23 g). A test compound was dissolved in a physiological saline solution and administered intraperitoneally to the mice. The administration of the test compound was began 24 hours after the inoculation of the leukemic cells and performed once a day for 5 days. The survival days of the treated mice were observed.

[2] = Preventive effect against the growth of Ehrlich ascites carcinoma (Method A); format: in vivo, mice (ICR, female); details: mouse, in vivo, ip; max dose, 100% inhibition without death; doses of the table in mg/kg/day; read-out: MTD (Maximum Tolerated Dose)
Protocol: (§1) (A) Preventive effect against the growth of Ehrlich ascites tumor
(§2) 10^6 tumor cells of Ehrlich ascites carcinoma were inoculated intraperitoneally into a group of five femal mice (ICR mice, body weight: 19-23 g). A test compound was dissolved in a physiological saline solution and administered intraperitoneally to the mice. The administration of the test compound was began 24 hours after the inoculation of the tumor cells and performed once a day for 5 days. The volume of ascites in the treated mice were measured after 7 days of the experiment.

[3] = tested on: Ehrlich ascites carcinoma; assay: as above; format: in vivo, mice (ICR, female); details: for inhibition in vivo at 1.56 mg/kg: 1.56 mg/kg/day i.p.; for inhibition in vivo at 6.25 mg/kg: 6.25 mg/kg/day i.p.; for inhibition in vivo at 100 mg/kg: 100 mg/kg/day i.p.; for inhibition in vivo at 400 mg/kg: 400 mg/kg/day i.p.; for minimal effective dose: 168 h, min dose, 100% inhibition, read-out: MED (Minimum Effective Dose)
Protocol: as §1, §2

[4] = Mus musculus, Ehrlich, ip, 120 h, 0.78 mg/kg/day i.p., 5 days, read-out: Inhibition ratio
[5] = Mus musculus, Ehrlich, ip, 120 h, 5 days, read-out: Inhibition ratio
[6] = Mus musculus, Ehrlich, ip, 120 h, 25 mg/kg/day i.p., 5 days, read-out: Inhibition ratio
[7] = Mus musculus, Ehrlich, ip, doses of the table in mg/kg/day
[8] = Mus musculus, Ehrlich, ip, 120 h, 0.39 mg/kg/day i.p., 5 days, read-out: Inhibition ratio
[9] = Mus musculus, Ehrlich, ip, 120 h, 0.19 mg/kg/day i.p., 5 days, read-out: Inhibition ratio

Compound | 60-day survivors (mice survived/mice used) (Leukemia L-1210; 25 mg/kg/day i.p.) | ILS (Leukemia L-1210; 25 mg/kg/day i.p.) | MTD at 168 h [2] | Therapeutic index (MTD/MED) [3] | inhibition in vivo at 0.78 mg/kg [3, 4] | inhibition in vivo at 1.56 mg/kg [3, 5] | inhibition in vivo at 6.25 mg/kg [3, 5] | inhibition in vivo at 25 mg/kg [3, 6] | inhibition in vivo at 100 mg/kg [3, 5] | minimal effective dose [3, 7] | 60-day survivors (mice survived/mice used) (Leukemia L-1210; 6.25 mg/kg/day i.p.) | ILS (Leukemia L-1210; 6.25 mg/kg/day i.p.) | 60-day survivors (mice survived/mice used) (Leukemia L-1210; 50 mg/kg/day i.p.) | ILS (Leukemia L-1210; 50 mg/kg/day i.p.) | Toxic (number of mice died/number of mice used) ([3]; 200 mg/kg/day i.p., 5 days) | inhibition in vivo at 0.39 mg/kg [3, 8] | further results
O=NN(CCCl)C(=O)NC1O[C@H](CO)[C@@H](O[C@@H]2O[C@H](CO)[C@H](O)[C@H](O)[C@H]2O)[C@H](O)[C@H]1O (stereo partly drawn) [1-(2-chloroethyl)-1-nitroso-3-(D-lactosyl)urea] | – | – | – | – | – | – | – | – | – | – | – | – | – | – | – | – | anti-tumor activity against leukemic cells (leukemic cells): show anti-tumor activity
O=NN(CCCl)C(=O)NC1O[C@H](CO)[C@@H](O[C@H]2O[C@H](CO)[C@@H](O)[C@H](O)[C@H]2O)[C@H](O)[C@H]1O (stereo partly drawn) [1-(2-chloroethyl)-1-nitroso-3-(D-maltosyl)urea] | – | – | – | – | – | – | – | – | – | – | – | – | – | – | – | – | anti-tumor activity against leukemic cells (leukemic cells): show anti-tumor activity
O=NN(CCCl)C(=O)NC1O[C@H](CO)[C@@H](O)[C@H](O)[C@@H]1O (stereo partly drawn) [1-(2-chloroethyl)-1-nitroso-3-(D-mannopyranosyl)urea] | – | – | – | – | – | – | – | – | – | – | – | – | – | – | – | – | life span of mice implanted with L-1210 [1]: increase the life span
COc1ccc(CN(C(=O)N(CCCl)N=O)C2O[C@H](CO)[C@@H](O[C@H]3O[C@H](CO)[C@@H](O)[C@H](O)[C@H]3O)[C@H](O)[C@H]2O)cc1 (stereo partly drawn) [Compound 3, 1-(2-chloroethyl)-1-nitroso-3-(p-methoxybenzyl)-3-[O-α-D-glucopyranosyl-(1→4)-D-glucopyranosyl]urea] | 0/4 | 50.7% | 400 mg/kg/day | 256 | 23.1% | 100% | 100% | 100% | 100% | 1.56 mg/kg/day | – | – | – | – | – | – | 60-day survivors (mice survived/mice used) (Leukemia L-1210; 200 mg/kg/day i.p.): 2/4; ILS (Leukemia L-1210; 200 mg/kg/day i.p.): > 328.8%; 60-day survivors (mice survived/mice used) (Leukemia L-1210; 400 mg/kg/day i.p.): 4/4; ILS (Leukemia L-1210; 400 mg/kg/day i.p.): > 721.9%; Toxic (number of mice died/number of mice used) ([3]; 800 mg/kg/day i.p., 5 days): 5/5; inhibition in vivo at 400 mg/kg [3, 5]: 100%
O=NN(CCCl)C(=O)N(Cc1ccco1)C1O[C@H](CO)[C@@H](O[C@H]2O[C@H](CO)[C@@H](O)[C@H](O)[C@H]2O)[C@H](O)[C@H]1O (stereo partly drawn) [Compound 6, 1-(2-chloroethyl)-1-nitroso-3-furfuryl-3-[O-α-D-glucopyranosyl-(1→4)-D-glucopyranosyl]urea] | 0/4 | 65.3% | 400 mg/kg/day | 128 | 21.6% | 76.5% | 100% | 100% | 100% | 3.12 mg/kg/day | – | – | – | – | – | – | 60-day survivors (mice survived/mice used) (Leukemia L-1210; 100 mg/kg/day i.p.): 2/4; ILS (Leukemia L-1210; 100 mg/kg/day i.p.): > 351.4%; 60-day survivors (mice survived/mice used) (Leukemia L-1210; 200 mg/kg/day i.p.): 4/4; ILS (Leukemia L-1210; 200 mg/kg/day i.p.): > 733.3%; Toxic (number of mice died/number of mice used) ([3]; 800 mg/kg/day i.p., 5 days): 5/5; inhibition in vivo at 3.12 mg/kg ([3]; Mus musculus, Ehrlich, ip, 120 h, 3.12 mg/kg/day i.p., 5 days, read-out: Inhibition ratio): 100%; inhibition in vivo at 400 mg/kg [3, 5]: 100%
O=NN(CCCl)C(=O)N(CC1CC1)C1O[C@H](CO)[C@H](O)[C@H](O)[C@H]1O (stereo partly drawn) [Compound 8, 1-(2-chloroethyl)-1-nitroso-3-cyclopropylmethyl-3-(D-galactopyranosyl)urea] | 4/4 | > 650.0% | 100 mg/kg/day | 128 | 100% | 100% | 100% | 100% | 100% | 0.78 mg/kg/day | 0/4 | 53.8% | 4/4 | > 650.0% | 3/5 | 21.1% | –
O=NN(CCCl)C(=O)N(CC1CCCO1)C1O[C@H](CO)[C@H](O)[C@H](O)[C@H]1O (stereo partly drawn) [Compound 9, 1-(2-chloroethyl)-1-nitroso-3-tetrahydrofurfuryl-3-(D-galactopyranosyl)urea] | 4/4 | > 689.5% | 100 mg/kg/day | 64 | 37.5% | 100% | 100% | 100% | 100% | 1.56 mg/kg/day | 0/4 | 55.3% | – | – | 5/5 | 6.2% | 60-day survivors (mice survived/mice used) (Leukemia L-1210; 100 mg/kg/day i.p.): 4/4; ILS (Leukemia L-1210; 100 mg/kg/day i.p.): > 689.5%
O=NN(CCCl)C(=O)N(CC1CC1)C1OC[C@H](O)[C@H](O)[C@H]1O (stereo partly drawn) [Compound 10, 1-(2-chloroethyl)-1-nitroso-3-cyclopropylmethyl-3-(L-arabinopyranosyl)urea] | 4/4 | > 721.9% | 100 mg/kg/day | 128 | 100% | 100% | 100% | 100% | 100% | 0.78 mg/kg/day | 0/4 | 82.2% | 4/4 | > 721.9% | 5/5 | 79.5% | inhibition in vivo at 0.19 mg/kg [3, 9]: 17.9%
O=NN(CCCl)C(=O)N(Cc1cccs1)C1OC[C@H](O)[C@H](O)[C@H]1O (stereo partly drawn) [Compound 13, 1-(2-chloroethyl)-1-nitroso-3-(thiophen-2-yl-methyl)-3-(L-arabinopyranosyl)urea] | 2/4 | > 442.9% | 100 mg/kg/day | 128 | 100% | 100% | 100% | 100% | 100% | 0.78 mg/kg/day | – | – | 2/4 | > 414.3% | 5/5 | 54% | 60-day survivors (mice survived/mice used) (Leukemia L-1210; 12.5 mg/kg/day i.p.): 0/4; ILS (Leukemia L-1210; 12.5 mg/kg/day i.p.): 121.4%; inhibition in vivo at 0.19 mg/kg [3, 9]: 18%
O=NN(CCCl)C(=O)N[C@@H]1O[C@H](CO)[C@@H](O)[C@H](O)[C@H]1O [GANU, 1-(2-chloroethyl)-1-nitroso-3-(D-glucopyranosyl)urea, reference compound] | – | – | – | 32 | – | – | – | – | – | 0.39 mg/kg/day | – | – | – | – | – | – | Inhibition ratio ([3]; 0.09 mg/kg/day i.p., 5 days): 4.2%; Inhibition ratio ([3]; 0.19 mg/kg/day i.p., 5 days): 79.2%; Inhibition ratio ([3]; 0.39 mg/kg/day i.p., 5 days): 100%; Inhibition ratio ([3]; 0.78 mg/kg/day i.p., 5 days): 100%; Inhibition ratio ([3]; 3.12 mg/kg/day i.p., 5 days): 100%; Toxic (number of mice died/number of mice used) ([3]; 25 mg/kg/day i.p., 5 days): 5/5; MTD (Maximum Tolerated Dose) ([3]; max dose, 100% inhibition without death, doses of the table in mg/kg/day, 10080 min): 12.5; life span of mice implanted with L-1210 [1]: increase the life span
